# Results reported in US20100081699A1, “YEAST PLATFORM CONSTRUCTION AND SCREENING METHODS” (Bioalvo-Servicos ,Investigacao e Desenvolvimento em …, priority 2006, published 2010).
# Target: T1, human IDO (Homo sapiens, UniProt P14902)
# T1 construct: The IDO gene was obtained from the IMAGE consortium as a 1586 bps fragment cloned in the vector pCMV-SPORT6; expressed in transfected cells
# Assay: Growth inhibition of BLOCKADE cells with small molecule compounds (life/death screen)
# Type: cell-based
# Conditions: S. cerevisiae BLOCKADE cells, minimum medium with 2% galactose, 10, 5, 2.5 and 1 μM compound, 3 days at 30° C.; WT cells at 10 μM as cytotoxicity control
# Procedure: Cells were pre-grown on a mixture of 1.2% glucose and 0.8% galactose until reaching early exponential phase (OD=1-2). The cells were washed three times with water and then resuspended in fresh selective medium containing 2% galactose, in order to fully activate IDO expression. Cells were dispensed into 96-well plates and inhibitor compounds were added to the cell culture at concentrations of 10, 5, 2.5 and 1 μM. Growth was monitored during 3 days at 30° C. under agitation. Compounds were selected from diverse libraries.
# IDO inhibitory compounds were identified as those that repressed the growth of the cells. Possible cytotoxic effects of the compounds were identified by growing the wild type strain in the same condition at a concentration of 10 μM. Compounds inhibiting both BLOCKADE cells and wild type strains were considered as cytotoxic and therefore not selected for further development. Compounds inhibiting only BLOCKADE cells, but not the wild type strains were considered as hits, potential IDO inhibitory compounds.
# T1 sequence (P14902 whole entry, the tested form may be a part): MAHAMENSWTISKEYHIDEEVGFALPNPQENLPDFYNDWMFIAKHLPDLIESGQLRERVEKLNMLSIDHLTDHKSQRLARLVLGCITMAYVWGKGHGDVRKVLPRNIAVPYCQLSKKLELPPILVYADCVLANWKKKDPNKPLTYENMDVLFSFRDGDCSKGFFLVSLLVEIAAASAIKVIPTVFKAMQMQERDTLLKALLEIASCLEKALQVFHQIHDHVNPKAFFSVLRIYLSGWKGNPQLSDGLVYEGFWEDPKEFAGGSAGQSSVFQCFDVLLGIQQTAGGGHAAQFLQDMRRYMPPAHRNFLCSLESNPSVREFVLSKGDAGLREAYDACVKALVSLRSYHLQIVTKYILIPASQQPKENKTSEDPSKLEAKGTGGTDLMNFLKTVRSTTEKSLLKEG
compound,measurement,value
O=C(O)CCn1c2ccc(Br)cc2c2cc(Br)ccc21 [BLK200769],Inhibition of growth of BLOCKADE cells,inhibition
